Here are results for one substance from US12173306B2, “Codon-optimized reduced-size ATP7A CDNA and uses for treatment of copper transport disorders” (The United States of America, as represented by the …, priority 2015, dated 2024).

The assay concerns C57BL/6-Atp7a^mo-br mice (mo-br mice). The assay can be described thus: Survival in a mouse model of Menkes disease (mo-br mice). In kind it is in vivo. As to conditions: single treatments, FIG. 5. The source says:
FIG. 5 is a graph showing survival of mo-br mice treated with rAAV9-co-rsATP7A (AAV9) and copper histidinate, untreated (UT), treated with AAV9co alone, or treated with copper histidinate alone.
FIG. 6 is a graph showing survival to weaning (dark gray bars) or prolonged survival (light gray bars) in untreated (UT) mice, mice treated with AAV5-rsATP7A and copper histidinate (AAV5+Cu), AAVrh10-rsATP7A and copper histidinate (AAVrh10+copper), AAV9-rsATP7A and copper (AAV9+Cu), and AAV9 co-rsATP7A and copper (AAV9co+Cu). rsATP7A is reduced-size ATP7A cDNA (native sequence (non-codon-optimized)).
The AAV9 co-rsATP7A described in Example 2 was administered to C57BL/6-Atp7a^mo-br mice (mo-br mice) by intracerebroventricular injection. The mice were injected bilaterally on day two of life with 1.6×10^9 vg in 5 μl of lactated Ringer's solution. Some of the mice were also treated with copper histidinate (15 μg) by subcutaneous injection during the first week of life (5 μg, d4-6). About 70% of the mice treated with combination AAV9 co-rsATP7A and copper histidinate survived at least 100 days (FIG. 5).
Different AAV serotypes were also tested for efficacy in mo-br mice.

As to copper histidinate, the “survival time (did not survive past)” value is recorded as ≤ 28 days.
